In the NIST ThermoML archive (doi:10.1016/j.tca.2018.08.017):
Where “and” joins values, the source holds several entries; their conditions need not be identical. Identical values can stand only once.

Conditions: 101.33 kPa, Liquid

CCCCCCCCCCCCCCCCCC [octadecane]
viscosity
Conditions	Concentric cylinders viscometry	Cone and plate viscometry
314.35 K	–	2.96 mPa·s and 3.01 mPa·s
314.55 K	–	2.97 mPa·s and 2.92 mPa·s
314.65 K	2.907 mPa·s	3 mPa·s and 3.16 mPa·s
314.67 K	2.905 mPa·s	–
314.75 K	–	2.97 mPa·s
314.85 K	–	2.98 mPa·s
314.95 K	–	2.94 mPa·s and 2.9 mPa·s
315.01 K	2.882 mPa·s	–
315.15 K	–	2.96 mPa·s and 2.97 mPa·s and 3.13 mPa·s
315.35 K	–	2.91 mPa·s and 2.95 mPa·s and 2.88 mPa·s
315.41 K	2.854 mPa·s	–
315.43 K	2.857 mPa·s	–
315.55 K	–	2.91 mPa·s
315.65 K	–	2.94 mPa·s and 2.87 mPa·s and 3.1 mPa·s
315.75 K	–	2.9 mPa·s
315.77 K	2.833 mPa·s	–
315.85 K	–	2.92 mPa·s
315.95 K	–	2.89 mPa·s
316.05 K	–	2.84 mPa·s
316.12 K	2.81 mPa·s	–
316.13 K	2.812 mPa·s	–
316.15 K	–	2.88 mPa·s and 2.9 mPa·s and 3.08 mPa·s
316.35 K	–	2.88 mPa·s and 2.89 mPa·s and 2.83 mPa·s
316.5 K	2.785 mPa·s	–
316.55 K	–	2.88 mPa·s
316.65 K	–	2.87 mPa·s and 2.81 mPa·s and 3.06 mPa·s
316.75 K	–	2.88 mPa·s
316.81 K	2.771 mPa·s	–
316.83 K	2.763 mPa·s	–
316.85 K	–	2.86 mPa·s
316.95 K	–	2.88 mPa·s
317.15 K	–	2.86 mPa·s [middle of 4 runs]
317.2 K	2.74 mPa·s	–
317.35 K	–	2.83 mPa·s and 2.84 mPa·s
317.45 K	–	2.79 mPa·s
317.46 K	2.732 mPa·s	–
317.55 K	–	2.82 mPa·s
317.61 K	2.715 mPa·s	–
317.65 K	–	2.84 mPa·s and 3.02 mPa·s
317.75 K	–	2.84 mPa·s and 2.83 mPa·s
317.95 K	–	2.82 mPa·s and 2.83 mPa·s
317.96 K	2.694 mPa·s	–
318.08 K	2.693 mPa·s	–
318.15 K	–	2.83 mPa·s [middle of 5 runs]
318.26 K	2.679 mPa·s	–
318.43 K	2.672 mPa·s	–
318.45 K	2.665 mPa·s	–
318.49 K	2.653 mPa·s	–
318.5 K	2.654 mPa·s	–
318.53 K	2.655 mPa·s	–
318.57 K	2.661 mPa·s	–
318.58 K	2.662 mPa·s	–
318.59 K	2.655 mPa·s	–
318.6 K	2.659 mPa·s	–
318.61 K	2.657 mPa·s	–
318.64 K	2.654 mPa·s	–
318.65 K	2.66 mPa·s	–
318.69 K	2.655 mPa·s	–
